Patent US12577556B2, “Perturbation beads for use in assays” (Zafrens Inc., priority 2022, dated 2026)

Tested on: Jurkat cells engineered to have enhanced green fluorescent protein (eGFP) reporter fused to nuclear factor of activated T cells (NFAT) transcription factor
Test: NFAT-eGFP reporter assay in Jurkat cells with compounds photoreleased from labeled perturbation beads
Type: cell-based
Details: compounds released from beads by 10 seconds of 365 nm light, 60 mW/cm^2
Experimental: Individual beads were added to wells of a multiwell assay device. Jurkat cells engineered to have enhanced green fluorescent protein (eGFP) reporter fused to nuclear factor of activated T cells (NFAT) transcription factor were added to each well (cells purchased from BPS Bioscience, Catalog #78384). The compounds were released from the beads by exposure to 10 seconds of 365 nm wavelength light having illumination power of 60 mW/cm^2 and allowed to interact with the cells in the respective wells. […] This exemplifies using optically detectible labels on the bead to code for perturbation compounds and/or building blocks and corresponding that visible code to a cell perturbation.

Structure (SMILES)	change in NFAT-eGFP expression levels
COc1cc2c(cc1Nc1ncc(C(=O)O)c(Nc3c(F)cccc3C(F)(F)F)n1)CN(C)CC2 [HPK, 4-{[2-Fluoro-6-(trifluoromethyl)phenyl]amino}-2-[(6-methoxy-2-methyl-1,2,3,4-tetrahydro-7-isoquinolinyl)amino]-5-pyrimidine-5-carboxylic acid]	minimal change
O=C1CCC(N2Cc3cc(C(=O)O)ccc3C2=O)C(=O)N1 (stereo not drawn) [LNI, 2-(2,6-dioxopiperidin-3-yl)-1-oxoisoindoline-5-carboxylic acid]	minimal change
Cc1sc2c(c1C)C(c1ccc(Cl)cc1)=NC([C@@H](C(=O)O)C(C)(C)C)c1nnc(C)n1-2 (stereo partly drawn) [JQ1, ((S)-tert-butyl 2-(4-(4-chlorophenyl)-2,3,9-trimethyl-6H-thieno[3,2-f] [1,2,4]triazolo[4,3-a] [1,4]diazepin-6-yl)acetic acid)]	minimal change
